Laboratory results from patent US20030171377A1, “Antidiabetic agents” (priority 2001, published 2003).

Columns and labels:
[1] = test system: CV-1 cells (FATP promoter luciferase reporter, 300 nM BRL); assay: ANTCV1 Antagonist Transcription Assay, Test B; type: cell-based, African green monkey; settings: Chlorocebus sabaeus, 25 μM test compound with 300 nM BRL, 48 hrs, % BRL inhibition, read-out: ANTCV1 INHIB @ 25 μM
[2] = test system: endogenous nuclear receptors in CV-1 cells; assay: CV-1 Native Receptors Transcription Assay (MKNRCV1), Test C; type: cell-based, African green monkey; settings: for MKNRCV1 % BRL @ 25 μM / MKNRCV1 % BRL @ 5 μM: percent activity of BRL 49653; for EC50: Chlorocebus sabaeus, CV-1 cells, 48 hours, unit inferred; for MKNRCV1 % BRL @ 5 μM: 5 μM (stated in the cell)
3T3-L1 preadipocytes = assay: 3T3-L1 Adipocyte Differentiation Assay (ADPDIFF), Test A; type: cell-based; settings: BODIPY lipid fluorescence, reported as % of BRL 49653 at 5 μM
Protocol: Cells are replenished with FBS containing media on day 5 of post-drug treatment and incubated for additional 4-6 days. Cells are stained with BODIPY a fluorescent lipophilic stain to quantitate the lipid content of the cells. The assay is optimized for a 96-well plate format. Approximately after 10 days of post-drug treatment, cells are fixed in 3% formalin solution for 15 min followed by staining with BODIPY (80 μg/ml) for 20 min at room temperature. The plate is then put through the CYTOFLUOR instrument to measure the fluorescence of BODIPY (excitation=485/20; emission=530/25).

EC50 [2] [µM]	Compound	inhibition at 25 µM [1] [%]	MKNRCV1 % BRL @ 25 μM [2] [% BRL]	ADPDIFF % BRL @ 5 μM (3T3-L1 preadipocytes) [% BRL]	MKNRCV1 % BRL @ 5 μM [2]
–	O=C(O)[C@H](Cc1ccc(OCc2ccccc2F)cc1)n1cccc1C(=O)C(F)(F)F	28	18	14	–
–	CC(=O)c1cc(C)n([C@@H](Cc2ccc(OCCc3oc(-c4ccccc4)nc3C)cc2)C(=O)O)c1C	-15	27	0	–
–	O=C(O)[C@H](Cc1ccc(/C=C/CN2CCC(c3ccccc3)CC2)cc1)n1cccc1 [drawing 292]	44	40	183	–
–	O=C(O)[C@H](Cc1ccc(CCCN2CCC(c3ccccc3)CC2)cc1)n1cccc1 [drawing 293]	50	22	38	–
0.9	CN(C/C=C/c1ccc(C[C@@H](C(=O)O)n2cccc2)cc1)c1ccccn1	-36	92	94	–
–	Cc1cc(-c2cc(O)c(Sc3cccc(C(=O)O)c3)oc2=O)ccc1OCc1ccccc1	-29	–	–	26 @ 5 μM % BRL
–	CC(=O)c1c(C(C)=O)c(C)n([C@@H](Cc2ccc(OCCc3nc(-c4ccccc4)oc3C)cc2)C(=O)O)c1C	3	24	0	–
13	Cc1oc(-c2ccccc2)nc1CCOc1ccc(CC(C)(C(=O)O)c2ccccc2)cc1 (centres unmarked) [drawing 218]	65	44	99	–
–	Cc1ccc(-c2ccccc2)n1[C@@H](Cc1ccc(OCc2ccccc2F)cc1)C(=O)O	-44	30	2	–
–	Cc1oc(-c2ccccc2)nc1CCOc1ccc(C[C@@H](C(=O)O)n2c(C)ccc2-c2ccccc2)cc1	-3	24	2	–
–	CN(CCOc1ccc(C[C@@H](C(=O)O)n2cccc2)cc1)c1ccnc2cc(Cl)ccc12	-87	83	1	–
–	CN(CC#Cc1ccc(CC(C(=O)O)n2cccc2)cc1)c1ccccn1 (centres unmarked)	-32	71	6	–
0.7	COC(=O)[C@H](Cc1ccc(/C=C/CN(C)c2ccccc2)cc1)n1cccc1	2	96	110	–
0.9	Cc1oc(-c2ccccc2)nc1CCOc1ccc(CC(C(=O)O)n2ccc(-c3ccccc3)c2)cc1 (centres unmarked)	29	54	125	–
–	CCc1nnc(C(Cc2ccc(OCCc3nc(-c4ccccc4)oc3C)cc2)c2ccccc2)o1 (centres unmarked) [drawing 225]	47	61	161	–
23.6	Cc1oc(-c2ccccc2)nc1CCOc1ccc(CC(C(=O)O)n2ccc(C(=O)C(C)C)c2)cc1 (centres unmarked)	-10	70	120	–
–	Cc1oc(-c2ccccc2)nc1CCOc1ccc(CC(C(=O)O)c2nc(-c3ccccc3)oc2C)cc1 (centres unmarked) [drawing 261]	18	–	–	110 @ 5 μM % BRL
–	Cc1oc(-c2ccccc2)nc1C/C=C/c1ccc(C[C@@H](C(=O)O)n2cccc2)cc1	–	94	76	–
–	CN(CCCc1ccc(C[C@@H](C(=O)O)n2cccc2)cc1)c1ccccn1	–	64	113	–
–	Cc1oc(-c2ccccc2)nc1CCCc1ccc(CC(C(=O)O)c2ccccc2)cc1 (centres unmarked)	–	0.1122	–	–
–	Cc1oc(-c2ccccc2)nc1CCC(=O)c1ccc(CC(C(=O)O)n2cccc2)cc1 (centres unmarked) [drawing 276]	–	–	3	–
0.4	O=C(O)[C@H](Cc1ccc(OCCc2ccccc2C(F)(F)F)cc1)n1cccc1	-27	80	112	–
5.6	COC(=O)[C@H](Cc1ccc(C#CCN(C)c2ccccn2)cc1)n1cccc1	71	38	29	–
34	Cc1oc(-c2ccccc2)nc1CC#Cc1ccc(CC(C(=O)O)c2cccnc2)cc1 (centres unmarked)	-15	–	–	49 @ 5 μM % BRL
1.2	Cc1oc(-c2ccccc2)nc1CCOc1ccc(CC(C(=O)O)c2ccccc2)cn1 (centres unmarked) [drawing 262]	–	–	–	–
16	Cc1oc(-c2ccccc2)nc1CCOc1ccc(C[C@@H](C(=O)O)n2c(C)cc(C(=O)C(F)(F)F)c2C)cc1	12	28	2	–

EC50 [2] [µM]	Compound	inhibition at 25 µM [1] [%]	MKNRCV1 % BRL @ 25 μM [2] [% BRL]	ADPDIFF % BRL @ 5 μM (3T3-L1 preadipocytes) [% BRL]	MKNRCV1 % BRL @ 5 μM [2]
–	Cc1oc(-c2ccccc2)nc1CCOc1ccc(CC(C(=O)O)c2cccs2)cc1 (centres unmarked)	-127	111	88	–
–	Cc1oc(-c2ccccc2)nc1CCOc1ccc(CC(C(=O)O)N2CCCC2=O)cc1 (centres unmarked)	-94	29	0	–
–	O=C(O)[C@H](Cc1ccc(OCCN2CCN(c3ccccc3)CC2)cc1)n1cccc1	-40	32	82	–
–	Cc1oc(-c2ccccc2)nc1CCOc1ccc(C[C@H](C(=O)O)c2ccccc2)cc1	-44	50	31	–
1.3	Cc1oc(-c2ccccc2)nc1CCOc1ccc(CC[C@@H](C(=O)O)n2cccc2)cc1	62	–	–	82 @ 5 μM % BRL
–	Cc1oc(-c2ccccc2)nc1CCOc1ccc(C[C@@H](c2nnco2)n2cccc2)cc1	49	–	45	37 @ 5 μM % BRL
–	COC(=O)[C@H](Cc1ccc(CCCN(C)c2ccccc2)cc1)n1cccc1	-2	71	73	–
–	Cc1ccc(C)n1[C@@H](Cc1ccc(OCc2ccccc2F)cc1)C(=O)O	–	34	2	–
4.7	Cc1oc(-c2ccccc2)nc1CCOc1ccc(CC(C(=O)O)n2ccc(C(=O)C3CCCCC3)c2)cc1 (centres unmarked)	-12	83	82	–
–	Cc1oc(-c2ccccc2)nc1CCOc1ccc(CC(C(=O)O)c2ccccc2)cn1 (centres unmarked) [drawing 309]	-58	–	–	75 @ 5 μM % BRL
–	O=C(c1ccn(C(Cc2ccc(OCc3ccccc3F)cc2)C(=O)O)c1)C1CCCCC1 (centres unmarked)	1	28	12	–
1.4	O=C(O)[C@H](Cc1ccc(OCc2ccccc2F)cc1)n1cccc1	-46	92	21	–
1.7	CN(C/C=C/c1ccc(C[C@@H](C(=O)O)n2cccc2)cc1)c1ccccc1	-29	79	–	–
0.1	COC(=O)[C@H](Cc1ccc(C#CCc2nc(-c3ccccc3)oc2C)cc1)n1cccc1	-114	123	90	–
2	Cc1oc(-c2ccccc2)nc1CCOc1ccc(CC(C)(C(=O)O)n2cccc2)cc1 (centres unmarked)	-80.3	87	117	–
1.3	O=C(O)[C@H](Cc1ccc(C#CCN2CCC(c3ccccc3)CC2)cc1)n1cccc1 [drawing 288]	-42	78	112	–
3.6	Cc1oc(-c2ccccc2)nc1CCOc1ccc([C@@H](C(=O)O)n2cccc2)cc1	39	57	–	47 % BRL
1	Cc1cc(OCCc2nc(-c3ccccc3)oc2C)ccc1CC(C(=O)O)c1ccccc1 (centres unmarked)	–	–	–	–
2.7	Cc1oc(-c2ccccc2)nc1CC#Cc1ccc(CC(C(=O)O)c2ccc(-c3ccccc3)cc2)cc1 (centres unmarked)	-21	–	–	86 @ 5 μM % BRL
–	Cc1oc(-c2ccccc2)nc1CC#Cc1ccc(CC(C(=O)O)c2cccc(-c3ccccc3)c2)cc1 (centres unmarked)	-3	–	–	48 @ 5 μM % BRL
–	Cc1oc(-c2ccccc2)nc1CCOc1ccc(C[C@H](C(=O)O)n2cccc2)cc1	–	–	96	87 @ 5 μM % BRL
–	Cc1oc(-c2ccccc2)nc1CCOc1ccc(C[C@@H](C(=O)O)n2cccc2)cc1	–	–	–	83 @ 5 μM % BRL
–	Cc1nc(-c2ccc(C(F)(F)F)cc2)sc1CSc1ccc(OCC(=O)O)cc1	-58	70	–	–
–	Cc1oc(-c2ccccc2)nc1CCOc1ccc([C@@H](C(=O)O)n2cccc2C(=O)c2ccccc2)cc1	-5	58	–	39 % BRL
–	Cc1oc(-c2ccccc2)nc1CCNc1ccc(C[C@@H](C(=O)O)n2cccc2)cc1	–	157	–	–
